Here are results for seven compounds from patent US7250442B2, “Dihydroindol-2-one derivatives as steroid hormone nuclear receptor modulators” (Eli Lilly and Company, priority 2003, dated 2007).

One assay has as its target T1, human MR (Homo sapiens, UniProt P08235).
T1 construct: The full length human MR gene is cloned from a human kidney or human brain cDNA library; made in house; host or cells: Sf9 insect cells (baculovirus, pAcHLT transfer vector)
T1 sequence (P08235 1-984): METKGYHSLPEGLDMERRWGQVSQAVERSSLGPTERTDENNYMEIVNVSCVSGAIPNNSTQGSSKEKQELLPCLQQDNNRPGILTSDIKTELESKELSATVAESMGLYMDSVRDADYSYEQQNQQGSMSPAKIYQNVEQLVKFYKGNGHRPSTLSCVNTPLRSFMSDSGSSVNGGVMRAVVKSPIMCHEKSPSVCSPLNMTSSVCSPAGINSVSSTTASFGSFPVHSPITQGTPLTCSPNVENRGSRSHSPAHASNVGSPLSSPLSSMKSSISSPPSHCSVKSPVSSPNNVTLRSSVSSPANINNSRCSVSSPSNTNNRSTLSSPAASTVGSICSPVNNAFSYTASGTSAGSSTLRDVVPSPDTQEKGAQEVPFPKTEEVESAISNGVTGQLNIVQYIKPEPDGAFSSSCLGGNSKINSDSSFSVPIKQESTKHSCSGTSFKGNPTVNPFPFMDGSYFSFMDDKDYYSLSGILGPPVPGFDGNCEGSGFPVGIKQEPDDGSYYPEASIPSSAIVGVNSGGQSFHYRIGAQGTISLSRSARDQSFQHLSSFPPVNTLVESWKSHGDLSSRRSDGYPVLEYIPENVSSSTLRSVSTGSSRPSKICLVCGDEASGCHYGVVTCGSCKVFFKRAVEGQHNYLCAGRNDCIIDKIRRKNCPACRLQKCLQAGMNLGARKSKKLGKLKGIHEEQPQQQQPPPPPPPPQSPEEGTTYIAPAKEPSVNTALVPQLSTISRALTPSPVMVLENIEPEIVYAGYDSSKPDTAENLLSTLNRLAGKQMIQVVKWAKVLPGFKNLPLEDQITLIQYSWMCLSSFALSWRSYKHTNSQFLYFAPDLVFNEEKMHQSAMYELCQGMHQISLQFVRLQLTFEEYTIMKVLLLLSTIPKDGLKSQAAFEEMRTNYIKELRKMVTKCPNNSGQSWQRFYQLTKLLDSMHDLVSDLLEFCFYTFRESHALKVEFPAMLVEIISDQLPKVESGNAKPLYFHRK
As to the kind of experiment: Mineralocorticoid Receptor Binding Assay ([3H]-aldosterone displacement). The settings on record: full length human MR expressed in Sf9 cells, 0.5 nM [3H]-aldosterone. Here is the method: Mineralocorticoid Receptor Binding Assay:
The full length human MR gene is cloned from a human kidney or human brain cDNA library. Briefly, using synthetic oligonucleotide primers (Eli Lilly and Company, Indianapolis) directed to nucleotides 20-54 and 3700-3666 of the human MR, polymerase chain reaction (PCR) is performed under standard conditions using a human cDNA library. The PCR reaction is performed in a final volume of 50 μl containing about 1 μl of a 50× stock solution of polymerase; about 1 μl of a 50× stock solution of dNTP; about 5 μl of an appropriate PCR buffer; about 1 μl of each primer; about 5 μl of a H. kidney or H. brain cDNA library; and about 36 μl of water. The reaction is allowed to denature for about 30 seconds at 95 degrees Celsius, anneal for about 30 seconds at 55 degrees Celsius, and extend for about 5 minutes at 72 degrees Celsius, the sequence being repeated for a total of about 35 cycles. The desired PCR product (3.68 Kb) is confirmed by gel electrophoresis and subsequently cut from the gel and stored at about −20 degrees Celsius until extraction. To extract the cDNA product from the agarose gel, the QIAEX II Gel Extraction protocol (QIAGEN, Inc.) is employed according to the manufacturer's instructions. Following extraction, the MR cDNA is cloned into an appropriate cloning vector (Zero Blunt TOPO PCR Cloning Kit (Invitrogen, Inc.) and a pAcHLT-baculovirus transfer vector (B.D./Pharminogen), then expressed in SF9 insect cells, essentially according to manufacturer's instructions. Sf9 cells are grown at a scale where gram quantity cell pellets are obtained for subsequent use in the MR binding assay. Harvested cell pellets are lysed by repeated freeze-thaw cycles (about 4) in a suitable lysis buffer then centrifuged at about 1×10^3 G (with the supernatant being saved for future assays).
MR binding assays are performed in a final total volume of about 250 μl containing about 20-25 μg of protein and 0.5 nM of [^3H]-aldosterone plus varying concentrations of test compound or vehicle. The assay binding buffer consists of 30 mM sodium molybdate, 30 mM of TRIS-HCl, 5 mM sodium phosphate, 5 mM sodium pyrophosphate, and about 10% glycerol, pH=7.5.
Briefly, assays are prepared at RT in 96-well Falcon 3072 plates, each well containing 210 μl of binding buffer, 10 μl of [^3H]-aldosterone, 10 μl of test compound/vehicle, and 20 μl of the resuspended receptor protein extract. Incubations are carried out at 4 degrees Celsius with shaking for about 16 hours. 200 μl aliquots of each incubation are filtered onto Millipore HA 0.45 micron 96-well filter plates, pre-moistened with cold 30 mM TRIS-HCl. The filter plates are suctioned dry with vacuum and immediately washed 3× with cold 30 mM TRIS-HCl. The plates are then punched out and the amount of receptor-ligand complex is determined by liquid scintillation counting using 4 ml of Ready Protein Plus™ liquid scintillation cocktail.
IC50 values (defined as the concentration of test compound required to decrease [^3H]-aldosterone binding by 50%) are then determined. Ki values for each respective test compound can then be calculated by application of the Cheng-Prusoff equation as described in Cheng et al., Relationship Between The Inhibition Constant (Ki) and The Concentration of Inhibitor Which Causes 50% Inhibition (IC50) of an Enzymatic Reaction, Biochem. Pharmacol., 22: 3099-31088; (1973).

For assay [1] the following is noted: in combination with standard CHF therapy, patients suffering from advanced CHF; cited from earlier work.

In turn, `C=CCN1C(=O)C(c2cc(C)c(O)c(C)c2)(c2cc(C)c(O)c(C)c2)c2ccccc21` [Example 104, 1-Allyl-3,3-bis-(4-hydroxy-3,5-dimethyl-phenyl)-1,3-dihydro-indol-2-one] showed a Ki at human MR of at most 500 nM.
Regarding `Cc1cc(C2(c3cc(C)c(O)c(C)c3)C(=O)N(Cc3ccc4ccccc4c3)c3ccccc32)cc(C)c1O` [Example 59, 3,3-Bis-(4-hydroxy-3,5-dimethyl-phenyl)-1-naphthalen-2-ylmethyl-1,3-dihydro-indol-2-one], the inhibition constant (Ki) on human MR is at most 500 nM.
Still for that read-out and setting: with `Cc1cc(C2(c3cc(C)c(O)c(C)c3)C(=O)N(Cc3ccc(C(=O)c4ccccc4)cc3)c3ccccc32)cc(C)c1O` [Example 71, 1-(4-Benzoyl-benzyl)-3,3-bis-(4-hydroxy-3,5-dimethyl-phenyl)-1,3-dihydro-indol-2-one] the figure was at most 500 nM; with `Cc1cc(C2(c3cc(C)c(O)c(C)c3)C(=O)N(Cc3cccnc3)c3ccccc32)cc(C)c1O` [Example 103, 3,3-Bis-(4-hydroxy-3,5-dimethyl-phenyl)-1-pyridin-3-ylmethyl-1,3-dihydro-indol-2-one], at most 500 nM; with `Cc1cc(C2(c3cc(C)c(O)c(C)c3)C(=O)N(CCc3ccccn3)c3ccccc32)cc(C)c1O` [Example 122, 3,3-Bis-(4-hydroxy-3,5-dimethyl-phenyl)-1-(2-pyridin-2-yl-ethyl)-1,3-dihydro-indol-2-one], at most 500 nM.
`CC(=O)S[C@@H]1CC2=CC(=O)CC[C@]2(C)[C@H]2CC[C@@]3(C)[C@@H](CC[C@@]34CCC(=O)O4)[C@H]12` [spironolactone]: in assay [1], the “reduced cardiac related mortality” value was 30% and the “reduced frequency of hospitalization” value is recorded as 35%.
`Cc1cc(C2(c3cc(C)c(O)c(C)c3)C(=O)N(CC(=O)NC3CCCCC3)c3ccccc32)cc(C)c1O` [Example 96, 2-[3,3-Bis-(4-hydroxy-3,5-dimethyl-phenyl)-2-oxo-2,3-dihydro-indol-1-yl]-N-cyclohexyl-acetamide] showed a Ki on human MR of at most 500 nM.
